This note sets out measurements from patent US10940173B2, “Cannabis oil extracts and compositions” (priority 2015, dated 2021).

Read-outs that look alike come from different tables or passages of the source.

Format in all cases: cell-based
For assay [1], the target named is T1, CNR2 (also known as CB2) (Homo sapiens, UniProt P34972). Briefly: cAMP competitive inhibition immunoassay (HitHunter), CNR2. As to conditions: cAMP assay. Background: cAMP levels reflect the balance of adenylyl cyclase and phosphodiesterase activity.
Assay [2] has as its target T1, CNR2 (also known as CB2). As to the kind of experiment: β-arrestin GPCR assay (PathHunter), CNR2. Further details: β-galactosidase enzyme fragment (complementation partner). To be noted: β-arrestin recruitment.
Assay [3] has as its target T2, CNR1 (also known as CB1) (Homo sapiens, UniProt P21554). The arrangement: β-galactosidase enzyme fragment (complementation partner). To be noted: read-out: CNR1 β-Arrestin EC50.
The target in assay [4] is T2, CNR1 (also known as CB1). As to conditions: read-out: CNR1 cAMP EC50.

T1 sequence (P34972 whole entry, the tested form may be a part): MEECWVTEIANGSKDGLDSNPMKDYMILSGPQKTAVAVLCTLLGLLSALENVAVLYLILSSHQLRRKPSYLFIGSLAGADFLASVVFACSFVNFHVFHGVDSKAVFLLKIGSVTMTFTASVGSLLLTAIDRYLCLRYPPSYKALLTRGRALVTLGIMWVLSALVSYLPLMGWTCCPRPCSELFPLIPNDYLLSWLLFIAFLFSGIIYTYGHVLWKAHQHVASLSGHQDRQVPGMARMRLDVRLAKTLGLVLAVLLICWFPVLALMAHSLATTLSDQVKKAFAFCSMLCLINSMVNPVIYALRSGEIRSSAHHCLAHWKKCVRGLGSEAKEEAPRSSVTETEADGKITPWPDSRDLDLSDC
T2 sequence (P21554 whole entry, the tested form may be a part): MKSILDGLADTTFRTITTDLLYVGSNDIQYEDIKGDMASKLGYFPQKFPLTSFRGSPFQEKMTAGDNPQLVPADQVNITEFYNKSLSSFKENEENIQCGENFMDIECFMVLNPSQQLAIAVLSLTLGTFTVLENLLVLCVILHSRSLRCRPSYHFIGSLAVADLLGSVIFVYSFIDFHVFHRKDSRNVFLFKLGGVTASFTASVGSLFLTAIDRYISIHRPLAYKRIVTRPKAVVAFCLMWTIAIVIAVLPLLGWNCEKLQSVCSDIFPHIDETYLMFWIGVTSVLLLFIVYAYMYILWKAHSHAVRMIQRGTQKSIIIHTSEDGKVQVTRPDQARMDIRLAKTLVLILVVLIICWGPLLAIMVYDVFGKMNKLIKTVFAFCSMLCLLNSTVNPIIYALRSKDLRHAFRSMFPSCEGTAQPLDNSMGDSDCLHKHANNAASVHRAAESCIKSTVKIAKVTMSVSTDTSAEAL

Broadly, the EC50 is the concentration needed to bring the measured effect to its halfway point. For the compound `CCCCCc1cc(O)c2c(c1)OC(C)(C)[C@@H]1CCC(CO)=C[C@@H]21` [Example 11-OH-THC], the EC50 was 571 nM at CNR2 (also known as CB2) [1], over 16700 nM at CNR2 (also known as CB2) [2], over 16700 nM at CNR1 (also known as CB1) [3] and 10.8 nM on CNR1 (also known as CB1) [4].
